Laboratory results: patent US20150267232A1, “IN VIVO AND IN VITRO CARBENE INSERTION AND NITRENE TRANSFER REACTIONS CATALYZED BY HEME ENZYMES” (California Institute of Technology, priority 2012, published 2015)

Columns and labels:
[1] = Intramolecular carbene C—H insertion, substrate 4.1a; type: biochemical
[2] = P450/hemin reactions with azide 5 under anaerobic conditions (C—H amination); type: biochemical
Excerpt: Benzosultam 6, arylsulfonamide 7 (*), and dimer 12 (#) are defined in FIG. 10. […] For instance, B1SYN (e.g., P450BM3 with 23 amino acid substitutions) catalyzed over 30 TTN for form the benzosultam.
Small-Scale Amination Reactions Under Anaerobic Conditions. […]

[3] = Whole-cell C—H amination of azide 1; type: cell-based, E. coli BL21(DE3); settings: intact E. coli cells
Method: Reaction conditions were as follows: 2 mM azide 1, 25 mM glucose, E. coli BL21(DE3) cells in M9-N minimal medium (OD600=30), 2.5% DMSO, oxygen depletion system (100 U ml^−1 glucose oxidase, 1400 U ml^−1 catalase) reacted for 24 hours under anaerobic conditions at 298 K. Yields determined by HPLC quantification.
(§1) Whole cell reactions used E. coli BL21(DE3) cells containing P450 or P411 catalysts, which were expressed and prepared as described elsewhere (Coelho, P. S. et al., Highly efficient carbene transfer to olefins catalyzed in vivo. Submitted (2013)). Following expression, cells were resuspended to an OD600 of 30 in M9 salts lacking NH4Cl (M9-N), and then degassed by sparging with argon in a sealed 6 mL crimp vial for at least 0.5 h. Separately, glucose (250 mM dissolved in 1×M9-N, 40 μL, or multiples thereof) was degassed by sparging with argon for at least five minutes. The oxygen quenching mixture was added to sealed 2 mL crimp vials containing stir bars and the headspace of the vials was purged with argon for five minutes at which time glucose, and then cells were added by syringe. Substrate (80 mM arylsulfonyl azide, 10 uL in DMSO) was added via syringe, and the reactions were stirred at room temperature for 24 h under positive argon pressure.
as §1, with “E.” for “Whole cell reactions used E.”, “catalysts” for “catalysts, which”, “Coelho,” for “(Coelho,”, “μL” for “uL”, “pressure. Reactions were quenched in a manner identical to reactions containing purified enzymes as described above. For chiral HPLC, the reactions were extracted and purified in an identical manner as for reactions that employed purified enzymes. Lyophilized intact cells containing sucrose as a cryoprotectant were prepared as described elsewhere (Coelho, P. S. et al., Highly efficient carbene transfer to olefins catalyzed in vivo. Submitted (2013)). The resulting cell powder, containing expressed ABC-CIS (26 mg) were added along with a stir bar to a 2 mL crimp vial and then sealed. The headspace of the vial was degassed, oxygen quenching system (40 μL) was added via syringe, followed by degassed glucose (250 mM, 40 μL), M9-N (310 μL), and finally substrate (80 mM 1, 10 μL). Lyophilized cell reactions were stirred for 24 h at room temperature, then quenched and analyzed as described above. […]” for “pressure.”
The preparative reaction was scaled up proportionally from small-scale reactions. E. coli BL21 cells containing ABC-CIS (OD600 30, 90 mL in M9-N) were sparged with argon for 45 minutes in a round bottom flask (250 mL) containing a stir bar. Separately, glucose solution (250 mM, 11.6 mL) was sparged with argon in a conical flask. The oxygen quenching mixture (10×, 11.6 mL) was degassed in a conical flask that was placed under high vacuum until slight foaming occurred (1-2 s) and then back-filled with argon; this sequence was repeated several times. Sparged glucose solution was then added to the anaerobic cell suspension via syringe, followed by the oxygen quenching system. Finally, substrate 1 (80 mM, 2.9 mL DMSO) was added dropwise via syringe, and the reaction was stirred for 24 h at room temperature. To quench the reaction, dilute HCl (3 M, 8.7 mL) and acetonitrile (125 mL) were added. […]

[4] = Whole-cell C—H amination of azide 1; type: cell-based, E. coli BL21(DE3); settings: lyophilized cells
[5] = cat. loading 1 mol %, reductant None
[6] = OD600=30, 2 mM azide 1, 24 hours, anaerobic

## hemin
[1]; 10 mM 4.1a, 5% hemin, 10 mM Na2S2O4, product 4.2a
  Yield %: 0%
[1]; substrates 4.1a and 4.1b, 10 μM variant or hemin at 5% catalyst loading, 16 h
  lactone formation via C—H bond insertion: not catalyzed
[2]; 1 mol %, 2 mM NADPH
  TTN arylsulfonamide 7: 1
  TTN benzosultam 6: 0
  arylsulfonamide 7 (% yield): (1) %
[2]; 1 mol %, 2 mM Na2S2O4
  TTN arylsulfonamide 7: 5
  TTN benzosultam 6: 0
  arylsulfonamide 7 (% yield): (5) %
[2]; 1 mol %, 10 mM Na2S2O4
  TTN arylsulfonamide 7: 58
  TTN benzosultam 6: 0
  arylsulfonamide 7 (% yield): (58) %
[2]; 10 mol %, 2 mM Na2S2O4
  TTN arylsulfonamide 7: 1
  TTN benzosultam 6: 0
  arylsulfonamide 7 (% yield): (10) %
[2]; 10 mol %, 10 mM Na2S2O4
  TTN arylsulfonamide 7: 6
  TTN benzosultam 6: 0
  arylsulfonamide 7 (% yield): (60) %
[2]; [5]
  TTN arylsulfonamide 7: 0
  TTN benzosultam 6: 0

B1: ABC-CIS: BM3-CIS + C400S (protein, listed as Bacillus megaterium)
chain: TIKEMPQPKTFGELKNLPLLNTDKPVQALMKIADELGEIFKFEAPGRVTRYLSSQRLIKEACDESRFDKNLSQALKFARDFAGDGLVTSWTHEKNWKKAHNILLPSFSQQAMKGYHAMMVDIAVQLVQKWERLNADEHIEVSEDMTRLTLDTIGLCGFNYRFNSFYRDQPHPFIISMVRALDEVMNKLQRANPDDPAYDENKRQFQEDIKVMNDLVDKIIADRKARGEQSDDLLTQMLNGKDPETGEPLDDGNIRYQIITFLIAGHEATSGLLSFALYFLVKNPHVLQKVAEEAARVLVDPVPSYKQVKQLKYVGMVLNEALRLWPTAPAFSLYAKEDTVLGGEYPLEKGDEVMVLIPQLHRDKTVWGDDVEEFRPERFENPSAIPQHAFKPFGNGQRASIGQQFALHEATLVLGMMLKHFDFEDHTNYELDIKETLTLKPKGFVVKAKSKKIPLGGIPSPSTEQSAKKVRKKAENAHNTPLLVLYGSNMGTAEGTARDLADIAMSKGFAPQVATLDSHAGNLPREGAVLIVTASYNGHPPDNAKQFVDWLDQASADEVKGVRYSVFGCGDKNWATTYQKVPAFIDETLAAKGAENIADRGEADASDDFEGTYEEWREHMWSDVAAYFNLDIENSEDNKSTLSLQFVDSAADMPLAKMHGAFSTNVVASKELQQPGSARSTRHLEIELPKEASYQEGDHLGVIPRNYEGIVNRVTARFGLDASQQIRLEAEEEKLAHLPLAKTVSVEELLQYVELQDPVTRTQLRAMAAKTVCPPHKVELEALLEKQAYKEQVLAKRLTMLELLEKYPACEMKFSEFIALLPSIRPRYYSISSSPRVDEKQASITVSVVSGEAWSGYGEYKGIASNYLAELQEGDTITCFISTPQSEFTLPKDPETPLIMVGPGTGVAPFRGFVQARKQLKEQGQSLGEAHLYFGCRSPHEDYLYQEELENAQSEGIITLHTAFSRMPNQPKTYVQHVMEQDGKKLIELLDQGAHFYICGDGSQMAPAVEATLMKSYADVHQVSEADARLWLQQLEEKGRYAKDVWAG
modifications: cytochrome P450NADPH-P-450 reductase precursor, cytochrome P450 (BM3), CYP102A1
notes: BM3-CIS + C400S
[3]; [6]
  Yield sulfonamide (%): 50%
  Yield sultam (%): 46%
[3]; anaerobic, added glucose
  TTN: 680
[3]; (S − R)/(S + R)
  % ee: 60%
[4]
  % ee: 61%
  TTN: 750
